Test results as given in patent publication US8247170B2, “Detection of penicillin tolerance in Group B Streptococcus: single nucleotide polymorphisms in penicillin binding protein 4” (priority 2008, dated 2012).

System: GBS clinical isolates and laboratory strains
Experiment: Macrobroth penicillin tolerance assay
Assay type: cell-based, Group B Streptococcus
Conditions: then 24 h drug-free; for 10xMIC, regrowth O.D.600: Penicillin G 10×MIC90 48 h; for 30xMIC, regrowth O.D.600: Penicillin G 30×MIC90 48 h; for 100xMIC, regrowth O.D.600: Penicillin G 100×MIC90 48 h; for 300xMIC, regrowth O.D.600: Penicillin G 300×MIC90 48 h
Procedure: Using this modified penicillin tolerance assay, tolerant strains from the GBS clinical isolates can be more efficiently identified. In this macrobroth culture format, 25 ml THB broth GBS cultures (containing clinical isolates) were grown to an early exponential growth phase (˜0.2 OD600). Cell cultures (6 ml) were collected and divided into 4 culture tubes. […] Cell cultures were shaken at 150 rpm in order to maintain cells in suspension for proper growth. Subcultures (1/20 dilution) of cells were put into fresh THB containing […] Penase (i.e., 100 μl of Penase 10,000 U stock into 4 ml THB culture). Subcultures were allowed to grow for 24 hours at 37° C. Cell growth was monitored by OD (see Example 2).
(I) Bacterial Strains and Culture Conditions. GBS strains A909 (serotype IA), 515 (serotype IA), NEM316 (serotype III), COHI (serotype III), 2603V/R (serotype V) and O90R (non-typable) were used in this study. E. coli Top10 cells were used for the recombination experiments. GBS was cultured in Todd Hewitt broth (THB) or Tryptic Soy 5% sheep blood (TS) media and E. coli in Luria-broth (LB) medium or agar. Antibiotics were used at the following concentrations: for GBS—penicillin G (MIC90 0.06 μg ml^−1), ampicillin (MIC90 0.12 μg ml^−1), vancomycin (MIC90 2 μg ml^−1), cefazolin (MIC90 1 μg ml^−1) and chloramphenicol (5 μg ml^−1); for E. coli—ampicillin (50 μg ml^−1) and chloramphenicol (5 μg ml^−1). Both GBS and E. coli cultures were grown at 37° C. (II) Tolerance Using the MBC:MIC Ratio Method. Three GBS laboratory strains (i.e., A909, NEM316, and O90R) were cultured overnight for 18 h at 37° C. in THB. Subcultures in THB were subsequently grown to exponential phase (OD600˜0.3; i.e. 5×10^5 cfu/ml) at 37° C. Cell cultures were then exposed to different concentrations of antibiotics (Penicillin G, Ampicillin, Cefozolin or Vancomycin). […] Cell cultures were dispersed every 18 h before OD600 was measured to determine the lowest concentration of antibiotic with 90% growth inhibition (MIC90). Antibiotic treated cells (8 μl) from each well were re-suspended into PBS (100 μl) and plated (54 μl) on TS agar plates and allowed to grow for an additional 24 h at 37° C. Cell count was performed to determine the lowest concentration of antibiotic with 90% killing of original inoculums (MBC90). (III) Penicillin Killing and Regrowth Tolerance Assay by Microbroth Dilution. Three GBS laboratory strains (i.e., A909, NEM316, and O90R) were cultured overnight for 18 h at 37° C. in THB. Subcultures in THB were subsequently grown to exponential phase (OD600˜0.3) at 37° C. Cell cultures were then exposed to different concentrations of Penicillin G (Sigma, St. Louis, Mo.). […] Cell cultures were dispersed. A 1:20 dilution of cells was re-plated into new wells containing fresh THB with 500 U Penase (to degrade residual penicillin). Cell cultures were allowed to re-grow for an additional 24 h at 37° C. before the OD600 was measured. (IV) Measuring Cell Viability by Determining ATP Concentration. GBS strains were cultured for 18 h at 37° C. in THB. These cells were inoculated into fresh THB and subsequently allowed to grow to exponential phase (OD600 0.25-0.3) at 37° C. One ml of each culture was centrifuged at 5,000×g for 4 min. The cell pellet was re-suspended in ATP-free water. Cellular ATP was extracted using trichloroacetic acid (TCA) (5%) for 2 min and subsequently neutralized with Tris-EDTA-0.1M NaOAc, pH 7.75 to 10×TCA volume. The initial (in.) cellular ATP concentration ([ATP]) was measured using the ENLITEN (Promega) luciferase based reaction kit. THB cultures were then treated with 100×MIC90 Penicillin G for 22 h. The experimental (exp.) cellular ATP was extracted and the concentration was measured as stated above. Based on the calculations ([ATP] exp.)/([ATP] in./O.D. in.), differences in viability were equated with the change in [ATP]. (V) Measuring Penicillin Induced Lysis. Three GBS laboratory strains (A909, NEM316, and O90R) were cultured for 18 h at 37° C. in THB. […]

## CC1(C)S[C@@H]2[C@H](NC(=O)Cc3ccccc3)C(=O)N2[C@H]1C(=O)O [Penicillin G]
GBS strain 308 (V)
  10xMIC, regrowth O.D.600: −− (“−−” indicates an O.D.600 of 0.001 to 0.099)
  30xMIC, regrowth O.D.600: −− (“−−” indicates an O.D.600 of 0.001 to 0.099)
  100xMIC, regrowth O.D.600: −− (“−−” indicates an O.D.600 of 0.001 to 0.099)
  300xMIC, regrowth O.D.600: −− (“−−” indicates an O.D.600 of 0.001 to 0.099)
GBS strain 311 (Ib)
  10xMIC, regrowth O.D.600: −− (“−−” indicates an O.D.600 of 0.001 to 0.099)
  30xMIC, regrowth O.D.600: −− (“−−” indicates an O.D.600 of 0.001 to 0.099)
  100xMIC, regrowth O.D.600: + (“+” indicates an O.D.600 of 0.100 to 0.250)
  300xMIC, regrowth O.D.600: + (“+” indicates an O.D.600 of 0.100 to 0.250)
GBS strain 316 (V)
  10xMIC, regrowth O.D.600: −− (“−−” indicates an O.D.600 of 0.001 to 0.099)
  30xMIC, regrowth O.D.600: −− (“−−” indicates an O.D.600 of 0.001 to 0.099)
  100xMIC, regrowth O.D.600: −− (“−−” indicates an O.D.600 of 0.001 to 0.099)
  300xMIC, regrowth O.D.600: −− (“−−” indicates an O.D.600 of 0.001 to 0.099)
GBS strain 320 (III)
  10xMIC, regrowth O.D.600: +++ (“+++” indicates an O.D.600 of 0.751 to 1.500)
  30xMIC, regrowth O.D.600: +++ (“+++” indicates an O.D.600 of 0.751 to 1.500)
  100xMIC, regrowth O.D.600: +++ (“+++” indicates an O.D.600 of 0.751 to 1.500)
  300xMIC, regrowth O.D.600: +++ (“+++” indicates an O.D.600 of 0.751 to 1.500)
GBS strain 357 (NT)
  10xMIC, regrowth O.D.600: −− (“−−” indicates an O.D.600 of 0.001 to 0.099)
  30xMIC, regrowth O.D.600: −− (“−−” indicates an O.D.600 of 0.001 to 0.099)
  100xMIC, regrowth O.D.600: +++ (“+++” indicates an O.D.600 of 0.751 to 1.500)
  300xMIC, regrowth O.D.600: ++ (“++” indicates an O.D.600 of 0.251 to 0.750)
GBS strain 359 (V)
  10xMIC, regrowth O.D.600: −− (“−−” indicates an O.D.600 of 0.001 to 0.099)
  30xMIC, regrowth O.D.600: −− (“−−” indicates an O.D.600 of 0.001 to 0.099)
  100xMIC, regrowth O.D.600: −− (“−−” indicates an O.D.600 of 0.001 to 0.099)
  300xMIC, regrowth O.D.600: −− (“−−” indicates an O.D.600 of 0.001 to 0.099)
GBS strain 367 (V)
  10xMIC, regrowth O.D.600: −− (“−−” indicates an O.D.600 of 0.001 to 0.099)
  30xMIC, regrowth O.D.600: −− (“−−” indicates an O.D.600 of 0.001 to 0.099)
  100xMIC, regrowth O.D.600: −− (“−−” indicates an O.D.600 of 0.001 to 0.099)
  300xMIC, regrowth O.D.600: −− (“−−” indicates an O.D.600 of 0.001 to 0.099)
GBS strain 377 (V)
  10xMIC, regrowth O.D.600: −− (“−−” indicates an O.D.600 of 0.001 to 0.099)
  30xMIC, regrowth O.D.600: −− (“−−” indicates an O.D.600 of 0.001 to 0.099)
  100xMIC, regrowth O.D.600: −− (“−−” indicates an O.D.600 of 0.001 to 0.099)
  300xMIC, regrowth O.D.600: −− (“−−” indicates an O.D.600 of 0.001 to 0.099)
GBS strain 378 (NT)
  10xMIC, regrowth O.D.600: −− (“−−” indicates an O.D.600 of 0.001 to 0.099)
  30xMIC, regrowth O.D.600: −− (“−−” indicates an O.D.600 of 0.001 to 0.099)
  100xMIC, regrowth O.D.600: −− (“−−” indicates an O.D.600 of 0.001 to 0.099)
  300xMIC, regrowth O.D.600: −− (“−−” indicates an O.D.600 of 0.001 to 0.099)
GBS strain 379 (V)
  10xMIC, regrowth O.D.600: −− (“−−” indicates an O.D.600 of 0.001 to 0.099)
  30xMIC, regrowth O.D.600: −− (“−−” indicates an O.D.600 of 0.001 to 0.099)
  100xMIC, regrowth O.D.600: −− (“−−” indicates an O.D.600 of 0.001 to 0.099)
  300xMIC, regrowth O.D.600: −− (“−−” indicates an O.D.600 of 0.001 to 0.099)
GBS strain 380 (NT)
  10xMIC, regrowth O.D.600: −− (“−−” indicates an O.D.600 of 0.001 to 0.099)
  30xMIC, regrowth O.D.600: −− (“−−” indicates an O.D.600 of 0.001 to 0.099)
  100xMIC, regrowth O.D.600: +++ (“+++” indicates an O.D.600 of 0.751 to 1.500)
  300xMIC, regrowth O.D.600: + (“+” indicates an O.D.600 of 0.100 to 0.250)
GBS strain 388 (NT)
  10xMIC, regrowth O.D.600: −− (“−−” indicates an O.D.600 of 0.001 to 0.099)
  30xMIC, regrowth O.D.600: −− (“−−” indicates an O.D.600 of 0.001 to 0.099)
  100xMIC, regrowth O.D.600: −− (“−−” indicates an O.D.600 of 0.001 to 0.099)
  300xMIC, regrowth O.D.600: −− (“−−” indicates an O.D.600 of 0.001 to 0.099)
GBS strain 389 (Ia)
  10xMIC, regrowth O.D.600: ++ (“++” indicates an O.D.600 of 0.251 to 0.750)
  30xMIC, regrowth O.D.600: +++ (“+++” indicates an O.D.600 of 0.751 to 1.500)
  100xMIC, regrowth O.D.600: +++ (“+++” indicates an O.D.600 of 0.751 to 1.500)
  300xMIC, regrowth O.D.600: +++ (“+++” indicates an O.D.600 of 0.751 to 1.500)
GBS strain 391 (NT)
  10xMIC, regrowth O.D.600: ++ (“++” indicates an O.D.600 of 0.251 to 0.750)
  30xMIC, regrowth O.D.600: ++ (“++” indicates an O.D.600 of 0.251 to 0.750)
  100xMIC, regrowth O.D.600: ++ (“++” indicates an O.D.600 of 0.251 to 0.750)
  300xMIC, regrowth O.D.600: ++ (“++” indicates an O.D.600 of 0.251 to 0.750)
GBS strain 399 (V)
  10xMIC, regrowth O.D.600: −− (“−−” indicates an O.D.600 of 0.001 to 0.099)
  30xMIC, regrowth O.D.600: + (“+” indicates an O.D.600 of 0.100 to 0.250)
  100xMIC, regrowth O.D.600: + (“+” indicates an O.D.600 of 0.100 to 0.250)
  300xMIC, regrowth O.D.600: + (“+” indicates an O.D.600 of 0.100 to 0.250)
